The results in this text go back to patent US11478461B2, “[1.1.1] bicyclo compounds as indoleamine 2,3-dioxygenase inhibitors” (Merck Sharp & Dohme Corp., priority 2018, dated 2022).

As usually defined, the IC50 is the concentration that gives 50% inhibition.

IDO1, sequence (P14902 whole entry): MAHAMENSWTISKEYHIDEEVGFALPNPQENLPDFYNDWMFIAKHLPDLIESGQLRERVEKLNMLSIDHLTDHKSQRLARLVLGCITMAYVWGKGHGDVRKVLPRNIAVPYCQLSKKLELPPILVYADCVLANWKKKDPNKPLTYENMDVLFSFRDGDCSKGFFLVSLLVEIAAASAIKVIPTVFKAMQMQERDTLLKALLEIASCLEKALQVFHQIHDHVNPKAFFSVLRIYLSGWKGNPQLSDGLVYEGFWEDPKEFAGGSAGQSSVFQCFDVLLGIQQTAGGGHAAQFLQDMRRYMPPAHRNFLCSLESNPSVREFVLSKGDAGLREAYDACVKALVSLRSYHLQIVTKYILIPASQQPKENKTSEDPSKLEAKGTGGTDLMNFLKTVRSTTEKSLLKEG

The target in the experiment is IDO1 (Homo sapiens, UniProt P14902). Briefly: IDO1 Cellular Assay in Hela Cells Stimulated with IFNγ. Format: cell-based. To be noted: IFNγ 100 ng/mL, 300 uM L-tryptophan, about 48 hours, fluorescence readout, read-out: IDO1 HELA Cell Assay, IC50. A digest of the protocol:
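HeLa cells stimulated with 100 ng/mL IFNγ, supplemented with 300 uM L-tryptophan, incubated 48 h at 37° C with ten 3-fold compound dilutions. Unstimulated cells served as Max-E control. Kynurenine detected by fluorescence (ex 400/em 510 nm) after overnight methyl isonipecotate reaction; IC50 by four-parameter logistic fit.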
Turning to `Cc1ccnc(C(=O)NC23CC([C@H](C)C(=O)Nc4ccc(F)cc4)(C2)C3)n1` [Example 57, N-[3-[(1S)-2-(4-fluoroanilino)-1-methyl-2-oxo-ethyl]-1-bicyclo[1.1.1]pentanyl]-4-methyl-pyrimidin-1-ium-2-carboxamide], the IC50 is 15.7 nM.
Under `Cc1ccc(C(=O)NC23CC(C(C)C(=O)Nc4ccc(F)cc4)(C2)C3)cn1` (centres unmarked) [Example 132, N-[3-[2-(4-fluoroanilino)-1-methyl-2-oxo-ethyl]-1-bicyclo[1.1.1]pentanyl]-6-methyl-pyridin-1-ium-3-carboxamide] stands 252 nM; under `CC(C(=O)Nc1ccc(F)cc1)C12CC(NC(=O)c3cnn4ccccc34)(C1)C2` (centres unmarked) [Example 113, N-[3-[2-(4-fluoroanilino)-1-methyl-2-oxo-ethyl]-1-bicyclo[1.1.1]pentanyl]pyrazolo[1,5-a]pyridin-1-ium-3-carboxamide], 47.3 nM; under `Cc1ccn2ncc(C(=O)NC34CC(C(C)C(=O)Nc5ccc(F)cc5)(C3)C4)c2c1` (centres unmarked) [Example 124, N-[3-[2-(4-fluoroanilino)-1-methyl-2-oxo-ethyl]-1-bicyclo[1.1.1]pentanyl]-5-methyl-pyrazolo[1,5-a]pyridin-1-ium-3-carboxamide], 153 nM.
Turning to `C[C@H](C(=O)Nc1cncc(Cl)c1)C12CC(NC(=O)c3ccc(Cl)c(Cl)c3)(C1)C2` [Example 94, (S)-3-chloro-5-(2-(3-(3,4-dichlorobenzamido)bicyclo[1.1.1]pentan-1-yl)propanamido)pyridin-1-ium 2,2,2-trifluoroacetate], the IC50 is 7.78 nM.
As to `O=C(NC12CC(C3(NC(=O)c4ccc(F)cc4)CC3)(C1)C2)OCc1ccccc1` [Example 23, Benzyl (3-(1-(4-fluorobenzamido)cyclopropyl)bicyclo[1.1.1]pentan-1-yl)carbamate], the IC50 was 107 nM.
Take `CC(C(=O)Nc1ccc(F)cc1)C12CC(NC(=O)c3cccc4c3CC(=O)N4)(C1)C2` (centres unmarked) [Example 121, N-[3-[2-(4-fluoroanilino)-1-methyl-2-oxo-ethyl]-1-bicyclo[1.1.1]pentanyl]-2-oxo-indoline-4-carboxamide]: the IC50 came to 131 nM.
For the molecule `C[C@H](C(=O)Nc1ccc(F)cc1)C12CC(NC(=O)c3cncc(C(F)(F)F)c3)(C1)C2` [Example 68, N-[3-[(1S)-2-(4-fluoroanilino)-1-methyl-2-oxo-ethyl]-1-bicyclo[1.1.1]pentanyl]-5-(trifluoromethyl)pyridin-1-ium-3-carboxamide], the IC50 is 13.9 nM.
In the case of `Cc1ccnc(C(=O)NC23CC(C(C)C(=O)Nc4ccc(F)cc4)(C2)C3)c1` (centres unmarked) [Example 118, N-[3-[2-(4-fluoroanilino)-1-methyl-2-oxo-ethyl]-1-bicyclo[1.1.1]pentanyl]-4-methyl-pyridin-1-ium-2-carboxamide], the IC50 is 89.4 nM.
Next, `O=C(NC1(C23CC(NC(=O)c4cc(C(F)F)ccn4)(C2)C3)CC1)c1ccc(F)cc1` [Example 27, 4-(difluoromethyl)-N-(3-(1-(4-fluorobenzamido)cyclopropyl)bicyclo[1.1.1]pentan-1-yl)picolinamide]: 104 nM.
On to `C[C@H](C(=O)Nc1ccc(F)cc1)C12CC(NC(=O)c3ccc(C(F)(F)F)nc3)(C1)C2` [Example 146, (S)-N-(3-(1-((4-fluorophenyl)amino)-1-oxopropan-2-yl)bicyclo[1.1.1]pentan-1-yl)-6-(trifluoromethyl)nicotinamide], for which the IC50 came to 218 nM.
Consider `Cc1ccc(C(=O)NC23CC([C@H](C)C(=O)Nc4ccc(F)cc4)(C2)C3)nc1Cl` [Example 61, 6-chloro-N-[3-[(1S)-2-(4-fluoroanilino)-1-methyl-2-oxo-ethyl]-1-bicyclo[1.1.1]pentanyl]-5-methyl-pyridin-1-ium-2-carboxamide], for which the IC50 is 11 nM.
As to `Cc1ccc(C(=O)NC23CC([C@@H](C)C(=O)Nc4ccc(F)cc4)(C2)C3)cc1F` [Example 41, 3-fluoro-N-[3-[(1R)-2-(4-fluoroanilino)-1-methyl-2-oxo-ethyl]-1-bicyclo[1.1.l]pentanyl]-4-methyl-benzamide], the half-maximal inhibitory concentration (IC50) stood at 405 nM.
On to `C[C@H](C(=O)Nc1ccc(F)c(Cl)c1)C12CC(NC(=O)c3ccc(Cl)c(Cl)c3)(C1)C2` [Example 96, (S)-3,4-dichloro-N-(3-(1-((3-chloro-4-fluorophenyl)amino)-1-oxopropan-2-yl)bicyclo[1.1.1]pentan-1-yl)benzamide], for which the IC50 was 78.4 nM.
Regarding `Cc1cc(C(=O)NC23CC([C@@H](C)C(=O)Nc4ccc(F)cc4)(C2)C3)ccc1Cl` [Example 45, 4-chloro-N-[3-[(1R)-2-(4-fluoroanilino)-1-methyl-2-oxo-ethyl]-1-bicyclo[1.1.l]pentanyl]-3-methyl-benzamide], the IC50 was found to be 109 nM.
For `C[C@H](C(=O)Nc1ccc(F)cc1)C12CC(NC(=O)c3ccc4ccccc4c3)(C1)C2` [Example 148, (S)-N-(3-(1-((4-fluorophenyl)amino)-1-oxopropan-2-yl)bicyclo[1.1.1]pentan-1-yl)-2-naphthamide], the IC50 stood at 19.7 nM.
Under `CC(C)OC(=O)NC12CC([C@H](C)C(=O)Nc3ccc(F)cc3)(C1)C2` [Example 79, isopropyl (S)-(3-(1-((4-fluorophenyl)amino)-1-oxopropan-2-yl)bicyclo[1.1.1]pentan-1-yl)carbamate] stands 20.4 nM; under `C[C@@H](C(=O)Nc1ccc(F)cc1)C12CC(NC(=O)c3cccc(C(F)(F)F)c3)(C1)C2` [Example 42, N-[3-[(1R)-2-(4-fluoroanilino)-1-methyl-2-oxo-ethyl]-1-bicyclo[1.1.1]pentanyl]-3-(trifluoromethyl)benzamide], 5.02 nM; under `CCOc1cccc(C(=O)NC23CC(C(C)C(=O)Nc4ccc(F)cc4)(C2)C3)n1` (centres unmarked) [Example 138, 6-ethoxy-N-[3-[2-(4-fluoroanilino)-1-methyl-2-oxo-ethyl]-1-bicyclo[1.1.1]pentanyl]pyridin-1-ium-2-carboxamide], 388 nM.
As for `C[C@H](C(=O)Nc1ccc(F)cc1)C12CC(NC(=O)c3ccc4cccnc4c3)(C1)C2` [Example 147, (S)-N-(3-(1-((4-fluorophenyl)amino)-1-oxopropan-2-yl)bicyclo[1.1.1]pentan-1-yl)quinoline-7-carboxamide], the IC50 was determined as 176 nM.
Under `C[C@H](C(=O)Nc1ccc(C(F)(F)F)cc1)C12CC(NC(=O)c3ccc(Cl)c(Cl)c3)(C1)C2` [Example 98, (S)-3,4-dichloro-N-(3-(1-oxo-1-((4-(trifluoromethyl)phenyl)amino)propan-2-yl)bicyclo[1.1.1]pentan-1-yl)benzamide] stands 23.2 nM; under `CC(C(=O)Nc1ccc(F)cc1)C12CC(NC(=O)c3ccn4ccccc34)(C1)C2` (centres unmarked) [Example 127, N-[3-[2-(4-fluoroanilino)-1-methyl-2-oxo-ethyl]-1-bicyclo[1.1.1]pentanyl]indolizine-1-carboxamide], 186 nM; under `CC(C(=O)Nc1ccc(F)cc1)C12CC(NC(=O)c3cccnc3)(C1)C2` (centres unmarked) [Example 142, N-[3-[2-(4-fluoroanilino)-1-methyl-2-oxo-ethyl]-1-bicyclo[1.1.1]pentanyl]pyridin-1-ium-3-carboxamide], 418 nM.
Regarding `C[C@@H](C(=O)Nc1ccc(F)cc1)C12CC(NC(=O)c3ccc(F)c(Cl)c3)(C1)C2` [Example 35, 3-chloro-4-fluoro-N-[3-[(1R)-2-(4-fluoroanilino)-1-methyl-2-oxo-ethyl]-1-bicyclo[1.1.1]pentanyl]benzamide], the IC50 is 122 nM.
For the molecule `CC(C(=O)Nc1ccc(F)cc1)C12CC(NC(=O)c3cccn4nncc34)(C1)C2` (centres unmarked) [Example 143, N-[3-[2-(4-fluoroanilino)-1-methyl-2-oxo-ethyl]-1-bicyclo[1.1.1]pentanyl]triazolo[1,5-a]pyridin-1-ium-4-carboxamide], the IC50 worked out at 448 nM.
For `C[C@H](C(=O)Nc1ccc(F)cc1)C12CC(NC(=O)c3cccc(C(F)(F)F)n3)(C1)C2` [Example 152, (S)-N-(3-(1-((4-fluorophenyl)amino)-1-oxopropan-2-yl)bicyclo[1.1.1]pentan-1-yl)-6-(trifluoromethyl)picolinamide], the IC50 was determined as 34.8 nM.
For the molecule `CC(C(=O)Nc1ccc(Cl)nc1)C12CC(NC(=O)c3ccc4c(c3)CC4)(C1)C2` (centres unmarked) [Example 18, N-(3-(1-((6-chloropyridin-3-yl)amino)-1-oxopropan-2-yl)bicyclo[1.1.1]pentan-1-yl)bicyclo[4.2.0]octa-1(6),2,4-triene-3-carboxamide], the 50% inhibitory concentration (IC50) worked out at 2.91 nM.
With `Cc1cc(C(=O)NC23CC(C(C)C(=O)Nc4ccc(F)cc4)(C2)C3)n(C)n1` (centres unmarked) [Example 139, N-[3-[2-(4-fluoroanilino)-1-methyl-2-oxo-ethyl]-1-bicyclo[1.1.1]pentanyl]-2,5-dimethyl-pyrazole-3-carboxamide], the IC50 stood at 396 nM.
On to `Cc1ncc(C(=O)NC23CC([C@H](C)C(=O)Nc4ccc(F)cc4)(C2)C3)cc1F` [Example 65, 5-fluoro-N-[3-[(1S)-2-(4-fluoroanilino)-1-methyl-2-oxo-ethyl]-1-bicyclo[1.1.1]pentanyl]-6-methyl-pyridin-1-ium-3-carboxamide], for which the IC50 was determined as 28.1 nM.
As to `CCc1cc(C(=O)NC23CC(C(C)C(=O)Nc4ccc(F)cc4)(C2)C3)n(C)n1` (centres unmarked) [Example 141, 5-ethyl-N-[3-[2-(4-fluoroanilino)-1-methyl-2-oxo-ethyl]-1-bicyclo[1.1.1]pentanyl]-2-methyl-pyrazole-3-carboxamide], the half-maximal inhibitory concentration (IC50) came to 415 nM.
Regarding `CC(C)(C(=O)Nc1ccc(F)cc1)C12CC(NC(=O)c3cccc(Cl)c3)(C1)C2` [Example 102, 3-Chloro-N-(3-(1-((4-fluorophenyl)amino)-2-methyl-1-oxopropan-2-yl)bicyclo[1.1.1]pentan-1-yl)benzamide], the IC50 was 19.2 nM.
Next, `CCc1cc(C(=O)NC23CC(C(C)C(=O)Nc4ccc(F)cc4)(C2)C3)no1` (centres unmarked) [Example 110, 5-ethyl-N-[3-[2-(4-fluoroanilino)-1-methyl-2-oxo-ethyl]-1-bicyclo[1.1.1]pentanyl]isoxazole-3-carboxamide]: 17.7 nM.
